Reference: US20250032511A1, “[…] USE IN TREATMENT OF SUPER […] EPILEPTICUS” (MARINUS PHARMACEUTICALS, INC., priority 2023, published 2025)

How the values were obtained:
[1] = system: SRSE; details: SRSE patients; anesthesia weaned until seizures started, then higher IV doses; cited from earlier work
[2] = in contrast to allopregnanolone; cited from earlier work
[3] = system: super refractory status epilepticus; test: Case report: intravenous ganaxolone in a patient with super refractory status epilepticus (EEG, mental status); assay type: in vivo, human

CC(=O)[C@H]1CC[C@H]2[C@@H]3CC[C@H]4C[C@](C)(O)CC[C@]4(C)[C@H]3CC[C@]12C [Ganaxolone, 3α-hydroxy-3β-methyl-5α-pregnan-20-one]
clinical outcome of earlier higher-dose regimen [1]: showed early success, but seizures returned in some patients when ganaxolone serum levels were reduced
oral bioavailability [2]: orally bioavailable
frequency of remaining generalized periodic discharges (GPDs) on EEG in subsequent days ([3]; before GNX: 2-4 Hz GPDs, same patient and regimen): up to 1 Hz
overall outcome of the case ([3]; late initiation of GNX (hospital day 52)): electrographic and clinical improvement
EEG pattern during GNX infusion ([3]; person, SRSE, IV 20 mg bolus, 60 mg/hr first hour, then 42 mg/hr, total 7 days): marked improvement in the EEG pattern
mental status ([3]; same patient, eye opening, attending, communicating with gestures and facial expressions): returned to their premorbid baseline
